Results published in patent publication US6444651B1, “Antimicrobial agents for eucaryotic microorganisms and methods of growth suppression of eucaryotic microorganisms using these agents” (Asama Chemical Co., Ltd., priority 1997, dated 2002).

Test system: Fungi
Test: Preservation tests for milky-lotion type hair tonics (Example 9)
Set-up: key: +: Fungi appeared
Details: day 14; 37° C.; DNA 0.03%, control 0.1% Ethyl p-hydroxy benzoate
Protocol: A milky-lotion type hair tonic was prepared using the components described below. It was manufactured under the open system since microbial infection from the air was expected.
The oil phase (A) and aqueous phase (B) were heated to 85° C., respectively. Then, (A) and (B) were mixed and agitated to emulsification at the same temperature. A hair tonic was prepared after the mixture was cooled down to normal temperature.
The hair tonic prepared was poured into a bottle with 0.03% of the DNA. The bottle was sealed and kept at 37° C. for preservation tests. 0.1% Ethyl p-hydroxy benzoate was added to the hair tonic as a control instead of the DNA.

CCOC(=O)c1ccc(O)cc1 [Control, Ethyl p-hydroxy benzoate]
appearance of fungi in hair tonic: +
